In patent publication US20120196927A1, “PROPHYLACTIC AND/OR THERAPEUTIC AGENT FOR METABOLIC SYNDROME” (priority 2009, published 2012):

Assays:
[1] = system: gluconeogenesis-related genes PEPCK, G6Pase; assay: Diabetes model mice: mRNA expression in the liver (real time RT-PCR); assay type: in vivo, mouse; conditions: ob/ob mice, Vehicle = 1.00, nobiletin 200 mg/kg/day, Pioglitazone 30 mg/kg/day, 5 weeks
Protocol: (§1) The effects by nobiletin ingestion to the mRNA expression in the white adipose tissue and the liver were measured (n=10).
(§2) After the termination of the administration period for 5 weeks, mRNA expression levels of respective genes shown in the table 10 were determined by using real time RT-PCR method. The real time RT-PCR was carried out according to an operation manual provided by ISOGEN (NIPPON GENE CO., LTD); RNA was extracted from the white adipose tissue and the liver. Next, cDNA was prepared from using 1 μg of RNA by using Reverse Transcription System kit (Promega Corp., USA). Next, suitable primers for the above-mentioned genes were prepared according to the operation manual provided by FastStart universal SYBR (a registered trademark) Greenmaster PCR KIT agent (Roche Diagnostics K. K., Germany).
(§3) Real time PCR system 7700HT (Applied Biosytems, USA) was used for the determination to carry out the real time PCR by using the cDNAs as templates. Each reaction conditions were set according to the manual of the PCR KIT. Quantitative analysis of the RNA amount was carried out based on comparative Ct method by using glyceraldehyde 3-phosphate dehydrogenase (GAPDH) as the standard reference.

[2] = system: GLUT4 protein; assay: Diabetes model mice: GLUT4 protein expression level (Western blotting); assay type: in vivo, mouse; conditions: ob/ob mice, nobiletin 200 mg/kg/day, Pioglitazone 30 mg/kg/day
Protocol: After finishing the experiment, the white adipose tissue and skeletal muscle were excised according to that described in the example 1, protein expression level of GLUT 4 were detected by using Western blotting method. The expression levels of GLUT4 protein were determined by using Na^+/K^+ ATPase α-1 protein as an internal reference.

[3] = system: GLUT4, Adiponectin, TNF-α, MCP-1, IL-6, PPARγ, aP2, LPL, Perilipin genes; assay: Diabetes model mice: mRNA expression in the white adipose tissue (real time RT-PCR); assay type: in vivo, mouse; conditions: ob/ob mice, Vehicle = 1.00, nobiletin 200 mg/kg/day, Pioglitazone 30 mg/kg/day, 5 weeks
Protocol: as §1, §2, §3

[4] = system: C57BL/6J-ob/ob mice; conditions: nobiletin 200 mg/kg/day, Pioglitazone 30 mg/kg/day, 5 weeks
Source text: (§6) Diabetes model mice and the experimental system were as follows. As the diabetes model mice, 7 week age of male C57BL/6J-ob/ob (hereinafter, it was referred to as “ob/ob”) were purchased from Charles River Laboratories Japan Inc., and used as 10 mice/group.
For the negative control group (from FIGS. 5 to 10, it was shown as Vehicle; hereinafter, it is referred to as “solvent administration group”), 0.3% of CMC aqueous solution was administrated orally for 5 weeks in everyday at the dosage of 0.01 mL/g body weight. For the positive control group (in FIGS. 5 to 10 and hereinafter, it was referred to as “P30 administrated group”), 3 mg of Pioglitazone was suspended in 0.3% CMC aqueous solution so as to be orally administrated at the dosage of 0.01 mL/g body weight for 5 weeks in everyday (dosage: 30 mg/kg body weight/day). […]
The blood insulin level was measured as described in below. […] As lipids in plasma, concentrations of neutral fat (TG) and total cholesterol (T-CHO) were measured. Plasma insulin level was measured by using rebis insulin mouse (type U) (Shibayagi Co. Ltd.) based on the enzyme-immunoassay.

[5] = system: C57BL/6J-ob/ob mice; assay: Diabetes model mice: oral glucose tolerance test (OGTT); assay type: in vivo, mouse; conditions: nobiletin 200 mg/kg/day, Pioglitazone 30 mg/kg/day
Protocol: The oral glucose tolerance test (OGTT) for the diabetes model mice (ob/ob) to which the nobiletin and others were administrated was subjected to the glucose tolerance test for studying the effects.
From 4 weeks after the start of the administration, the mice in each group were fasted for 16 hours, and then they were administrated 2 g/kg body weight of glucose per os. After the administration of glucose, […] of blood was collected from the tail vein at the time point of 0, 30, 60 and 120 minutes. Collected blood was centrifuged at 4° C., 3,000×g, for 15 minute to obtain plasma (n=10). The blood glucose level was measured as the same as that described in the example 1.

[6] = system: C57BL/6J-ob/ob mice; assay type: in vivo, mouse; conditions: p.o. daily 5 weeks, nobiletin 200 mg/kg/day (No200), Pioglitazone 30 mg/kg/day (P30)
Source text: as §6
For the negative control group (from FIGS. 5 to 10, it was shown as Vehicle; hereinafter, it is referred to as “solvent administration group”), 0.3% of CMC aqueous solution was administrated orally for 5 weeks in everyday at the dosage of 0.01 mL/g body weight. For the positive control group (in FIGS. 5 to 10 and hereinafter, it was referred to as “P30 administrated group”), 3 mg of Pioglitazone was suspended in 0.3% CMC aqueous solution so as to be orally administrated at the dosage of 0.01 mL/g body weight for 5 weeks in everyday (dosage: 30 mg/kg body weight/day).
For the sample ingestion group (in FIGS. 5 to 10 and hereinafter, it is referred to as “No200 ingestion group”), 20 mg of nobiletin purified as mentioned above (1) was suspended in 0.3% of carboxymethylcellulose (CMC) aqueous solution so as to be orally administrated at the dose of 0.01 mL/g body weight for 5 weeks in everyday (the dose: 200 mg/kg/day).
The body weight of mice, ingestion amount, weight of the white adipose tissue and liver weight of each mice were measured as the same as described in the example 3.

[7] = system: C57BL/6J-ob/ob mice; assay: Diabetes model mice: fasting blood glucose level; assay type: in vivo, mouse; conditions: nobiletin 200 mg/kg/day, Pioglitazone 30 mg/kg/day p.o.
Protocol: Two weeks or 5 weeks from the beginning of the administration, the fasting blood glucose was measured (n=10). The measurement of the blood glucose level was carried out as the same as that of the example 1.

[8] = system: C57BL/6 male mice; assay: Tangeretin, obesity-induced mice: blood glucose in fasting state; assay type: in vivo, mouse; conditions: tangeretin 200 mg/kg/day p.o., HFD
Protocol: The blood glucose level was measured as the same as that of the example 1. […] As mentioned above, it was shown that tangeretin has the inhibition effects of the blood glucose level in the fasting state when the high fat diet was ingested.

[9] = system: C57BL/6 male mice; assay: Tangeretin, obesity-induced mice: body weight gain and ingestion amount; assay type: in vivo, mouse; conditions: HFD obesity-induced C57BL/6 mice
Source text: (§4) Six week age of C57BL/6 male mice were preliminary kept for 1 week (−9 to −8 week), and then classified into three groups. […] was given to one group, and HFD was given to other two groups, for 8 weeks (−8 to +5 week). From 8 weeks (15 week age) to 13 weeks, the following agents were given to each group for 5 weeks per os (hereinafter, they were referred to as LFD administration group and HFD administration group in the Example 6). The compositions of the LFD or HFD were the same as those in the Example 3.
(§5) To the LFD administration group (n=8) and the HFD administration group (n=11), 0.3% CMC aqueous solution was given at the amount of 0.01 mL/g of the body weight. […] The schedule of the feed ingestion and the agent administration of the above-mentioned 3 groups were schematically shown in FIG. 12A.
The ingestion amount of the mice in each group was measured twice a week. The ingestion amounts in 24 hours/3 mice/cage were measured and obtained as mean average of each group for 5 weeks.

[10] = system: C57BL/6 male mice; assay: Tangeretin, obesity-induced mice: tissue weight; assay type: in vivo, mouse; conditions: HFD obesity-induced mice, tangeretin 200 mg/kg/day p.o. 5 weeks
Source text: as §4, §5
After the completion of the experiment, the mice in each group were dissected to excise organs and so forth to measure their weight. The white adipose tissue was excised from retroperitoneum and periphery of epididymis.

[11] = system: C57BL/6 male mice; assay: Tangeretin, obesity-induced mice: oral glucose tolerance test (OGTT); assay type: in vivo, mouse; conditions: tangeretin 200 mg/kg/day p.o., HFD
Protocol: The oral glucose tolerance test (OGTT) was carried out as the same as that in the example 1.

[12] = system: GLUT4 gene and PPARγ gene; assay: Tangeretin, obesity-induced mice: mRNA expression of GLUT4 and PPARγ (real time RT-PCR); assay type: in vivo, mouse; conditions: HFD = 1, tangeretin 200 mg/kg/day p.o. 5 weeks
Protocol: mRNA expression level was determined by using real time PCR as follows. According to the direction attached with ISOGEN (Nippon Gene Co., Ltd), RNA was extracted from white adipose tissue, liver, and skeletal muscle. Next, cDNA was prepared from 1 μg of RNA by using Reverse Transcription System kit (Promega, USA). Subsequently, according to the direction attached with FastStart universal SYBR (Registered trademark) Greenmaster PCR kit reagent (Roche Diagnostics, Germany), primers suitable for each intended gene in the following experiments were synthesized. Real time PCR system 7700 HT (Applied Biosytems, USA) was used for the measurement, the cDNA was used as templates for the real time PCR. Reaction conditions were followed to those for the PCR kit reagents. Quantitative analysis of RNA level was performed by Comparison Ct method, using glyceraldehyde 3-phosphate dehydrogenase (GAPDH) as the standard.
As the same as that in the Example 1, after the completion of the experiment, the white adipose tissue was excised to determine the both mRNA expression levels of GLUT4 gene mRNA and PPARγ gene by using the real time RT-PCR. Ratios of the expression levels when that of the HFD is 1 were shown in the table 18 and FIGS. 11A and 11B.

[13] = system: C57BL/6 male mice; assay: Tangeretin, obesity-induced mice: blood TG and T-CHO level; assay type: in vivo, mouse; conditions: fasting, tangeretin 200 mg/kg/day p.o., HFD
Protocol: After the completion of the experiment, blood neutral fat level in fasting state was measured at the time points of beginning of the experiment, two and five weeks after the administration.
The blood neutral fat (TG) level was measured as the same as that employed in the example 1.
The total cholesterol (T-CHO) level in blood was measured as the same as that in the Example.

[14] = Western blotting, Vehicle = 1.00, 5 weeks

SMILES: CCc1ccc(CCOc2ccc(CC3SC(=O)NC3=O)cc2)nc1 (stereo not shown) [Pioglitazone, reference compound]
- Gene expression level (ratio), [L]G6Pase [1]: 0.23 ± 0.04
- Gene expression level (ratio), [L]PEPCK [1]: 0.57 ± 0.01
- Gene expression level (ratio), Skeletal muscle (GLUT4 protein) [2, 14]: 3.15
- Gene expression level (ratio), White adipose tissue (GLUT4 protein) [2, 14]: 2.24
- GLUT4 protein expression amount in the skeletal muscle, times higher than vehicle administration group [2]: ~3 times
- GLUT4 protein expression level in the white adipose tissue, times higher than vehicle administration group [2]: 2.2 times
- Gene expression level (ratio), [W]Adiponectin [3]: 1.58 ± 0.02
- Gene expression level (ratio), [W]GLUT4 [3]: 1.15 ± 0.02
- Gene expression level (ratio), [W]IL-6 [3]: 0.19 ± 0.12
- Gene expression level (ratio), [W]LPL [3]: 0.93 ± 0.04
- Gene expression level (ratio), [W]MCP-1 [3]: 0.44 ± 0.10
- Gene expression level (ratio), [W]PPARγ [3]: 1.13 ± 0.02
- Gene expression level (ratio), [W]Perilipin [3]: 1.37 ± 0.13
- Gene expression level (ratio), [W]TNF-α [3]: 1.08 ± 0.01
- Gene expression level (ratio), [W]aP2 [3]: 2.03 ± 0.01
- Adiponectin level in blood, times higher than solvent administration group [4]: ≥ 2.5 times
- Blood glucose level (OGTT) ([5]; 0 min after 2 g/kg glucose p.o.): 144.67 ± 8.96 mg/dL
- Blood glucose level (OGTT) ([5]; 30 min after 2 g/kg glucose p.o.): 273.55 ± 14.15 mg/dL
- Blood glucose level (OGTT) ([5]; 60 min after 2 g/kg glucose p.o.): 170.60 ± 4.45 mg/dL
- Blood glucose level (OGTT) ([5]; 120 min after 2 g/kg glucose p.o.): 175.79 ± 18.06 mg/dL
- Gained body weight [6]: 10.83 ± 0.58 g
- white adipose tissue [6]: 5.70 ± 0.17 g
- Blood glucose level (fasting) ([7]; 0 week after administration): 183.61 ± 16.51 mg/dL
- Blood glucose level (fasting) ([7]; 2 weeks after administration): 132.50 ± 7.86 mg/dL
- Blood glucose level (fasting) ([7]; 5 weeks after administration): 144.67 ± 8.96 mg/dL

SMILES: COc1ccc(-c2cc(=O)c3c(OC)c(OC)c(OC)c(OC)c3o2)cc1 [tangeretin]
- Blood glucose level (fasting state) ([8]; time after administration 0 (head prints min.)): 142.82 ± 7.03 mg/dL
- Blood glucose level (fasting state) ([8]; time after administration 2 (head prints min.)): 164.79 ± 9.82 mg/dL
- Blood glucose level (fasting state) ([8]; time after administration 5 (head prints min.)): 124.75 ± 7.14 mg/dL
- Body weight gain ([9]; tangeretin 200 mg/kg/day p.o. 5 weeks (HFD+T200)): 3.94 ± 0.45 g
- Ingestion amount ([9]; tangeretin 200 mg/kg/day p.o., mean of 5 weeks): 2.47 ± 0.24 g/day
- Tissue Weight, Kidney [10]: 0.31 ± 0.01 g/100 g of body weight
- Tissue Weight, Liver [10]: 1.48 ± 0.11 g/100 g of body weight
- Tissue weight, Epididymis white adipose tissue [10]: 0.99 ± 0.12 g/100 g of body weight
- Tissue weight, Retroperitoneum white adipose tissue [10]: 2.38 ± 0.09 g/100 g of body weight
- Tissue weight, White adipose tissue in total [10]: 3.38 ± 0.16 g/100 g of body weight
- Blood glucose level (OGTT) ([11]; 0 min after glucose): 124.75 ± 7.14 mg/dL
- Blood glucose level (OGTT) ([11]; 15 min after glucose): 347.43 ± 11.82 mg/dL
- Blood glucose level (OGTT) ([11]; 30 min after glucose): 309.73 ± 17.88 mg/dL
- Blood glucose level (OGTT) ([11]; 60 min after glucose): 274.14 ± 19.04 mg/dL
- Blood glucose level (OGTT) ([11]; 120 min after glucose): 265.19 ± 15.82 mg/dL
- Expression level (ratio), [M]GLUT4 ([12]; skeletal muscle mRNA): 1.72
- Expression level (ratio), [W]GLUT4 ([12]; white adipose tissue mRNA): 0.42
- Expression level (ratio), [W]PPARγ ([12]; white adipose tissue mRNA): 0.43
- Blood TG level ([13]; 0 weeks after administration): 108.70 ± 7.75 mg/dL
- Blood TG level ([13]; 2 weeks after administration): 107.89 ± 9.46 mg/dL
- Blood TG level ([13]; 5 weeks after administration): 105.42 ± 7.54 mg/dL
